Measurements: patent US4220795A, “Cyclobutyl substituted derivatives of prostaglandin analogs” (Miles Laboratories, Inc., priority 1978, dated 1980)

Assays:
femoral blood flow = assay: Effects on Femoral Blood Flow in the Dog (Test C); format: in vivo, dog (mongrel); settings: anesthetized dog, intraarterial 0.001 to 10 mcg
Method: C. Evaluation of the Effects of Prostaglandin Analogs III on the Femoral Blood Flow in the Dog
The peripheral vasodilator or constrictor effects of test compounds were determined in mongrel dogs of either sex, weighing between 10 and 20 kg anesthestized intravenously with 35 mg/kg of sodium pentobarbital. An external iliac artery was dissected immediately above the femoral arch for a length of approximately 5 cm and a previously calibrated, non-connulating electromagnetic flowmeter sensor with a lumen between 2.5 and 3.5 mm was placed snugly around the vessel. Cannulas were placed in a branch of the artery arising distally to the location of the flowmeter sensor for intraarterial drug administrations, in the contralateral femoral artery for systemic blood pressure recordings and in the trachea for artificial respiration with room air. Femoral blood flow and systemic blood pressure were continuously recorded with an electromagnetic flowmeter and pressure transducer, respectively.
After an adequate control period, test compounds were injected intraarterially at one log-spaced doses ranging from 0.001 to 10 mcg., in a volume of 0.5 ml and at 5 to 10 min intervals. Maximum changes in bloodflow, as well as any variations in blood pressure, were tabulated for each dose in absolute values (ml/min and mmHg). The calculations were made taking as control values those existing immediately before administration of each dose. The direction of the observed change (+ for increase and - for decrease) was also noted. The dose changing bloodflow by 100 ml/min (ED100 ml/min) was calculated graphically and was used for scoring activity as follows: […]

rat uterus = assay: Effects on the Rat Uterus (Test F); settings: for EC50: read-out: Activity value, Test F: Effects on Rat Uterus (ED50, response of 50% that of carbachol)
Method: F. Evaluation of the Effects of Prostaglandin Analogs III on the Rat Uterus
The uterine stimulant effect of test compounds is determined in segments of uterus obtained from rats (140-160 g) pretreated subcutaneously with 1 mg/kg of diethylstibesterol 18 hr before the experiment. The tissues are placed in 10 ml chambers filled with de-Jalon solution at 29° C. and bubbled with 95% O2 and 5% CO2, and prepared for isometric recording with force displacement transducers. Preparations are stretched to an initial tension of 1 g and are left undisturbed for 30 min, after which two responses to 1 mcg/ml of carbachol added to the bath at a 10 min interval, are obtained (the value of the second response is recorded). Responses to increasing concentrations of the test compound (0.001 to 10.0 mcg/ml with one log intervals) are then recorded every 10 min. Preparations are washed four times after each response. All doses of drugs are administered in a 0.1 ml volume. Since it has been observed that the magnitude of the second response to carbachol, which is approximately 10% greater than the first, is close to the maximal response of the tissue, such value is taken as a measure of the sensititity of the particular segment. Responses to each concentration of the test compound are expressed in terms of percentage of the second response to carbachol and the ED50 (dose producing a response of 50% that of carbachol) is calculated graphically. Activity is scored according to the following scale: […]

blood pressure = assay: Effects on Blood Pressure and Heart Rate in the Anesthetized Cat (Test D); format: in vivo; settings: Felis catus, iv, i.v. 0.01 to 10.0 mcg/kg, scored on hypotension, read-out: Activity value, Test D: Normal Feline Blood Pressure and Heart Rate (ED50 mmHg)
Method: D. Evaluation of the Effects of Prostaglandin Analogs III on Blood Pressure and Heart Rate in the Anesthetized Cat
The acute effects of test compounds on blood pressure and heart rate were determined in cats of either sex anesthetized with a mixture of pentobarbital sodium (35 mg/kg, i.v.) and barbital sodium (100 mg/kg, i.v.). Cannulas were placed in the trachea to allow adequate spontaneous ventilation, in a femoral artery for blood pressure recording with a strain gage transducer, and in a saphenous vein for drug administration. Heart rate was recorded by means of a cardiotachometer driven by the R wave of the electrocardiogram. After a period of 10 min of stable recordings of blood pressure and heart rate, the test compound was administered intravenously at doses increasing from 0.01 to 10.0 mcg/kg, spaced one log and injected at 10 min intervals. All doses were injected in a volume of 0.1 ml/kg. Modifications of blood pressure and heart rate induced by the test compound were expressed both in absolute units (mmHg and beats/min) and as percent of values recorded immediately before administration of each dose. Biphasic responses were tabulated in the order in which they occur. The direction of the observed changes was also noted (+ for increase and - for decrease).
Activity of compounds in this test was judged only on the basis of the degree of hypotension observed. Thus, the ED50 mmHg (dose decreasing blood pressure by 50 mmHg) was calculated graphically and the compound scored according to the following scale: […]

[1] = tested on: blood pressure (hypertensive rat); assay: Effects on Blood Pressure in the Hypertensive Rat (Test E); format: in vivo; parameters: key: 0: Not significant at any time interval; 1: Significant at one time interval; 2: Significant at two time intervals; 3: Significant at three time intervals; 4: Significant at all four intervals; settings: 1 mg/kg intraperitoneal, 2, 4, 6 and 8 hr
Method: E. Evaluation of the Effects of Prostaglandin Analogs III on Blood Pressure in the Hypertensive Rat
The acute antihypertensive activity of test compounds is determined in rats made hypertensive by the procedure of Grollman (A. Proc. Soc. Exper. Biol. Med., 57:102, [1944]). Female rats weighing between 60 and 100 g are anesthetized with ether, the right kidney approached through a flank retroperitoneal incision, decapsulated and tied with a figure-of-eight ligature. The animals are left to recover and two weeks later are again anesthetized and the contralateral kidney removed. Four weeks after the second operation the rats are subjected to indirect blood pressure measurements and those showing systolic pressure values greater than 160 mmHg are selected for drug testing.
Blood pressure is measured in the tail with an inflatable occluding cuff placed at the base of the extremity and a pulse detector located distally. The cuff is inflated to approximately 300 mmHg and is slowly deflated until pulsations appear, indicating the level of systolic pressure; diastolic pressure is not recorded by this procedure. All measurements are carried out in unanesthetized, unsedated animals maintained in a warm environment during the recording procedure and for at least 6 hr before. In all cases, three pressure readings are obtained in succession and mean values are calculated thereof.
Experiments are carried out in groups of five hypertensive rats in which systolic pressure is determined immediately before and 2, 4, 6 and 8 hr after the intraperitoneal administration of the test compound at a dose of 1 mg/kg. Drugs are diluted from stock solutions with phosphate buffer (Lee et al., Prostaglandins 3:29 [1973]), so as to inject this quantity in a volume of 1 ml/kg. Changes from control blood pressure values are calculated for each interval both in mmHg and in per-cent, and evaluated for significance by means of Wilcoxon's signed rank test (Wilcoxon and Wilcox, Some rapid approximate statistical procedures, Lederle Laboratories, Pearl River [1964]).

[2] = rat uterus segments, 0.001 to 10.0 mcg/ml, 29° C.

EC50 (rat uterus; [2]) [µg/mL] | SMILES | ED (50 mmHg) (blood pressure) [mg/kg] | also measured
> 10 | CCC1CC([C@@H](O)/C=C/[C@H]2[C@H](O)CC(=O)[C@@H]2CCCCCCO)C1 (relative stereo) [TR-4675, (±)16,18-Methano-1-nor-2,11α,15R-trihydroxyprost-13E-en-9-one] | > 0.0101 | Activity value, Test C: Increase in Canidae Femoral Blood Flow (ED100 ml/min) (femoral blood flow): 0 (>10.0)
> 10 | CCC1CC([C@H](O)/C=C/[C@H]2[C@H](O)CC(=O)[C@@H]2CCCCCCO)C1 (relative stereo) [TR-4676, (±)16,18-Methano-1-nor-2,11α,15S-trihydroxyprost-13E-en-9-one] | > 0.0101 | Activity value, Test C: Increase in Canidae Femoral Blood Flow (ED100 ml/min) (femoral blood flow): 0 (>10.0); Activity value, Test E: Effects on Blood Pressure in Hypertensive Rat (blood pressure decrease) [1]: 0
> 10 | CCC1CC(C(O)/C=C/[C@H]2C=CC(=O)[C@@H]2CCCCCCC(=O)OC)C1 (some centres unmarked) [TR-4280, Methyl 15RS-hydroxy-16,18-methano-9-oxoprosta-10,13E-dien-1-oate] |  | 
 | CCC1CC([C@H](O)/C=C/C2C(O)CC(O)C2CCCCCCCO)C1 (stereo partly drawn) [TR-4626, 16,18-Methanoprost-13E-en-1,9α,11α,15S-tetraol] |  | Activity value, Test F: Effects on Rat Uterus (ED50, response of 50% that of carbachol) (rat uterus; [2]): 0 (>10)
> 10 | CC1([C@@H](O)/C=C/[C@H]2[C@H](O)CC(=O)[C@@H]2CCCCCCCO)CCC1 [TR-4674, 16,19-Cyclo-16-methyl-20-nor-1,11α,15S-trihydroxyprost-13E-en-9-one] | > 0.0101 | Activity value, Test E: Effects on Blood Pressure in Hypertensive Rat (blood pressure decrease) [1]: 0
> 10 | CCC1CC(C)([C@H](O)/C=C/[C@H]2[C@H](O)CC(=O)[C@@H]2CCCCCCC(=O)OC)C1 (stereo partly drawn) [TR-4681, Methyl 11α,15R-dihydroxy-16,18-methano-16-methyl-9-oxoprost-13E-en-1-oate] | 0.00101 to 0.01 | Activity value, Test C: Increase in Canidae Femoral Blood Flow (ED100 ml/min) (femoral blood flow): 2 (0.11-1.0)
> 10 | COC(=O)CCCCCC[C@H]1C(=O)C=C[C@@H]1/C=C/[C@@H](O)C1(C)CCC1 [TR-4683, Methyl 16,19-cyclo-15R-hydroxy-16-methyl-20-nor-9-oxoprosta-10,13E-dien-1-oate] |  | 
> 10 | CCC1CC(C)([C@@H](O)/C=C/[C@H]2[C@H](O)CC(=O)[C@@H]2CCCCCCCO)C1 (stereo partly drawn) [TR-4689, 16,18-Methano-16-methyl-1,11α,15S-trihydroxyprost-13E-en-9-one] | > 0.0101 | Activity value, Test C: Increase in Canidae Femoral Blood Flow (ED100 ml/min) (femoral blood flow): 0 (>10.0)
> 10 | CCCCC1([C@H](O)/C=C/[C@H]2[C@H](O)CC(=O)[C@@H]2CCCCCCC(=O)OC)CCC1 [TR-4692, Methyl 11α,15R-dihydroxy-9-oxo-16,16-propanoprost-13E-en-1-oate] | 0.00101 to 0.01 | Activity value, Test E: Effects on Blood Pressure in Hypertensive Rat (blood pressure decrease) [1]: 0
> 10 | CCC1CC(C)(C(O)/C=C/[C@H]2C=CC(=O)[C@@H]2CCCCCCC(=O)OC)C1 (stereo partly drawn) [TR-4694, Methyl 15R-hydroxy-16,18-methano-16-methyl-9-oxoprosta-10,13E-dien-1-oate] |  | 
> 10 | COC(=O)CCCCCC[C@H]1C(=O)C[C@@H](O)[C@@H]1/C=C/[C@H](O)C1CC(CC2CCC2)C1 (stereo partly drawn) [TR-4796, Methyl 11α,15R-dihydroxy-16,18-methano-20,20-propano-9-oxoprost-13E-en-1-oate] |  | 
> 10 | COC(=O)CCCCCC[C@H]1C(=O)C[C@@H](O)[C@@H]1/C=C/[C@@H](O)C1CC(CC2CCC2)C1 (stereo partly drawn) [TR-4797, Methyl 11α,15S-dihydroxy-16,19-methano-20,20-propano-9-oxoprost-13E-en-1-oate] |  | 
> 10 | O=C1C[C@@H](O)[C@H](/C=C/[C@H](O)C2CC(CC3CCC3)C2)[C@H]1CCCCCCCO (stereo partly drawn) [TR-4832, 1,11α,15R-Trihydroxy-16,18-methano-20,20-propanoprost-13E-en-9-one] |  | 
> 10 | O=C1C[C@@H](O)[C@H](/C=C/[C@@H](O)C2CC(CC3CCC3)C2)[C@H]1CCCCCCCO (stereo partly drawn) [TR-4833, 1,11α,15S-Trihydroxy-16,18-methano-20,20-propanoprost-13E-en-9-one] |  | 
> 10 | O=C1C[C@@H](O)[C@H](/C=C/[C@@H](O)C2CC(C3CCC3)C2)[C@H]1CCCCCCCO (stereo partly drawn) [TR-4880, 1,11α,15S-Trihydroxy-16,18-methano-19,20-ethanoprost-13E-en-9-one] |  | 
> 10 | O=C1C[C@@H](O)[C@H](/C=C/[C@H](O)C2CC(C3CCC3)C2)[C@H]1CCCCCCCO (stereo partly drawn) [TR-4881, 1,11α,15R-Trihydroxy-16,18-methano-19,20-ethanoprost-13E-en-9-one] |  | 
> 10 | COC(=O)CCCCCC[C@H]1C(=O)C[C@@H](O)[C@@H]1/C=C/[C@H](O)C1CC(C2CCC2)C1 (stereo partly drawn) [TR-4882, Methyl 11α,15R-dihydroxy-16,18-methano-19,20-ethano-9-oxoprost-13E-en-1-oate] |  | 
> 10 | COC(=O)CCCCCC[C@H]1C(=O)C[C@@H](O)[C@@H]1/C=C/[C@@H](O)C1CC(C2CCC2)C1 (stereo partly drawn) [TR-4887, Methyl 11α,15S-dihydroxy-16,18-methano-19,20-ethano-9-oxoprost-13E-en-1-oate] |  | 
 | C[N+](C)(C)CCOC(N)=O [carbachol, reference compound] |  | magnitude of the second response greater than the first (rat uterus; carbachol 1 mcg/ml, rat uterus, 10 min interval): approximately 10%

SMILES | EC50 (rat uterus; [2]) [µg/mL] | ED (50 mmHg) (blood pressure) [mg/kg] | also measured
CCC1CC([C@H](O)/C=C/[C@H]2C=CC(=O)[C@@H]2CCCCCCCOC(C)=O)C1 (stereo partly drawn) [TR-4565, 1-Acetoxy-15S-hydroxy-16,18-methanoprosta-10,13E-dien-9-one] | > 10 | > 0.0101 | Activity value, Test C: Increase in Canidae Femoral Blood Flow (ED100 ml/min) (femoral blood flow): 1 (1.0.-10.0)
